Measurements: patent US20240158446A1, “CYCLIC COMPOUND HAVING SELECTIVE INHIBITORY ACTION ON KRAS OVER HRAS AND NRAS” (CHUGAI SEIYAKU KABUSHIKI KAISHA, priority 2021, published 2024)

Legend:
[1] = biological target: GDP-bound HRAS wild-type protein (Homo sapiens, UniProt P01112); test: Binding to HRAS by surface plasmon resonance (SPR), Single Cycle Kinetics; conditions: SPR KD ratio HRAS/KRAS, class symbols
[2] = biological target: GDP-bound NRAS wild-type protein (Homo sapiens, UniProt P01111); test: Binding to NRAS by surface plasmon resonance (SPR), Single Cycle Kinetics; conditions: SPR KD ratio NRAS/KRAS, class symbols
GDP-bound NRAS wild-type protein, sequence (P01111 whole entry): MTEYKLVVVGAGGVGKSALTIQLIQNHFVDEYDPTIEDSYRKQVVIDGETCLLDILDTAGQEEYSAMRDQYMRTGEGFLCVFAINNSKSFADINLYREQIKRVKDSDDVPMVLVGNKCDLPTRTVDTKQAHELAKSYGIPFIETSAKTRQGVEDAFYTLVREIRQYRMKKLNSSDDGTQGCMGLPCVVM

[3] = biological target: GDP-bound KRAS wild-type protein (Homo sapiens, UniProt P01116); test: Binding to KRAS by surface plasmon resonance (SPR), Single Cycle Kinetics; conditions: SPR Single Cycle Kinetics, GDP-bound KRAS wild-type protein, 1:1 binding model; read-out: KRAS KD
GDP-bound KRAS wild-type protein, sequence (P01116 whole entry): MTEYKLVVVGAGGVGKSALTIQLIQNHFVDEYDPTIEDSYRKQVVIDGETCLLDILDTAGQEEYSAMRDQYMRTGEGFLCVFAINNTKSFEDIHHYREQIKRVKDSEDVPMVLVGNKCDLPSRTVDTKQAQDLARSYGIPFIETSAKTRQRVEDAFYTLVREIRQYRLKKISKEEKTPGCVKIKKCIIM

GDP-bound HRAS wild-type protein, sequence (P01112 whole entry): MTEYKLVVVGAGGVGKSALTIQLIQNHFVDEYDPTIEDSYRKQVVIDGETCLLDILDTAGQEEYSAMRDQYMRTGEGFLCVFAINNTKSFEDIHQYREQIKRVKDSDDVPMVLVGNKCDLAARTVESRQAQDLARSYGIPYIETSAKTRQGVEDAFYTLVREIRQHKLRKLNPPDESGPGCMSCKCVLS

SMILES | HRAS/KRAS (ratio of KD value with respect to GDP-bound HRAS wild-type protein to KD value with respect to KRAS) [1] | NRAS/KRAS (ratio of KD value with respect to GDP-bound NRAS wild-type protein to KD value with respect to KRAS) [2] | Kd [3] [nM]
CCO[C@@H]1C[C@H]2C(=O)NC3(CC(C)(C)C3)C(=O)N(C)[C@@H](C(CC)CC)C(=O)N(C)[C@H](C(=O)N3CCCC3)CC(=O)N(C)[C@H]3CCC/C=C/c4ccc(cc4)C[C@@H](C(=O)N(C)CC(=O)N[C@@H](CCc4ccc(Cl)c(Cl)c4)C(=O)N2C1)N1CC/C=C\C[C@@H](C1=O)N(C)C(=O)CN(C)C(=O)[C@H]([C@@H](C)CC)NC3=O [PP2581] | A (a compound having 10 or more and less than 20 is denoted as A) | AA (a compound having 20 or more is denoted as AA) | 0.21
CCO[C@@H]1C[C@H]2C(=O)NC3(CC(C)(C)C3)C(=O)N(C)[C@@H](C3CCCC3)C(=O)N(C)[C@H](C(=O)N3CCCC3)CC(=O)N(C)[C@H]3CCC/C=C/c4ccc(cc4)C[C@@H](C(=O)N(C)CC(=O)N[C@@H](CCc4cc(F)c(C(F)(F)F)c(F)c4)C(=O)N2C1)N1CC/C=C\C[C@@H](C1=O)N(C)C(=O)CN(C1CC1)C(=O)[C@H]([C@@H](C)CC)NC3=O [PP2583] | A (a compound having 10 or more and less than 20 is denoted as A) | A (a compound having 10 or more and less than 20 is denoted as A) | 0.11
CCO[C@@H]1C[C@H]2C(=O)NC3(CC(C)(C)C3)C(=O)N(C)[C@@H](C3CCCC3)C(=O)N(C)[C@H](C(=O)N(C)CC)CC(=O)N(C)[C@H]3CCCC/C=C/c4ccc(cc4)C[C@@H](C(=O)N(C)CC(=O)N[C@@H](CCc4ccc(Cl)c(Cl)c4)C(=O)N2C1)N1CC/C=C\C[C@@H](C1=O)N(C)C(=O)CN(C)C(=O)[C@H]([C@@H](C)CC)NC3=O [PP2592] | A (a compound having 10 or more and less than 20 is denoted as A) | A (a compound having 10 or more and less than 20 is denoted as A) | 0.13
CCO[C@@H]1C[C@H]2C(=O)NC3(CC(C)(C)C3)C(=O)N(C)[C@@H](C3CCCC3)C(=O)N(C)[C@H](C(=O)N3CCCC3)CC(=O)N(C)[C@H]3CCCC/C=C/c4ccc(cc4)C[C@@H](C(=O)N(C)CC(=O)N[C@@H](CCc4ccc(Cl)c(Cl)c4)C(=O)N2C1)N1CC/C=C\C[C@@H](C1=O)N(C)C(=O)CN(C)C(=O)[C@H]([C@@H](C)CC)NC3=O [PP2593] | A (a compound having 10 or more and less than 20 is denoted as A) | A (a compound having 10 or more and less than 20 is denoted as A) | 0.15
CCC(CC)[C@H]1C(=O)N(C)[C@H](C(=O)N(C)C)CC(=O)N(C)[C@H]2CCC/C=C/c3ccc(cc3)C[C@@H](C(=O)N(C)CC(=O)N[C@@H](CCc3cc(F)c(C(F)(F)F)c(F)c3)C(=O)N3C[C@H](OC(C)C)C[C@H]3C(=O)NC3(CC(C)(C)C3)C(=O)N1C)N1CC/C=C\C[C@@H](C1=O)N(C)C(=O)CN(C)C(=O)[C@H]([C@@H](C)CC)NC2=O [PP2594] | A (a compound having 10 or more and less than 20 is denoted as A) | A (a compound having 10 or more and less than 20 is denoted as A) | 0.1
CC[C@H](C)[C@@H]1NC(=O)[C@@H]2CCC/C=C/c3ccc(cc3)C[C@@H](C(=O)N(C)CC(=O)N[C@@H](CCc3ccc(Cl)c(Cl)c3)C(=O)N3C[C@H](OC(C)C)C[C@H]3C(=O)NC3(CC(C)(C)C3)C(=O)N(C)[C@@H](C3CCCC3)C(=O)N(C)[C@H](C(=O)N(C)CC)CC(=O)N2C)N2CC/C=C\C[C@@H](C2=O)N(C)C(=O)CN(C)C1=O [PP2595] | B (a compound having 3 or more and less than 10 is denoted as B) | A (a compound having 10 or more and less than 20 is denoted as A) | 0.17
CC[C@H](C)[C@@H]1NC(=O)[C@@H]2CCC/C=C/c3ccc(cc3)C[C@@H](C(=O)N(C)CC(=O)N[C@@H](CCc3ccc(Cl)c(Cl)c3)C(=O)N3C[C@H](OC(C)C)C[C@H]3C(=O)NC3(CC(C)(C)C3)C(=O)N(C)[C@@H](C3CCCC3)C(=O)N(C)[C@H](C(=O)N3CCCC3)CC(=O)N2C)N2CC/C=C\C[C@@H](C2=O)N(C)C(=O)CN(C)C1=O [PP2596] | A (a compound having 10 or more and less than 20 is denoted as A) | A (a compound having 10 or more and less than 20 is denoted as A) | 0.16
CCO[C@@H]1C[C@H]2C(=O)NC3(CC(C)(C)C3)C(=O)N(C)[C@@H](C3CCCC3)C(=O)N(C)[C@H](C(=O)N3CCCCC3)CC(=O)N(C)[C@H]3CC/C=C/c4ccc(cc4)C[C@@H](C(=O)N(C)CC(=O)N[C@@H](CCc4ccc(Cl)c(Cl)c4)C(=O)N2C1)N1CC/C=C\C[C@@H](C1=O)N(C)C(=O)CN(C)C(=O)[C@H]([C@@H](C)CC)NC3=O [PP2597] | A (a compound having 10 or more and less than 20 is denoted as A) | A (a compound having 10 or more and less than 20 is denoted as A) | 0.51
CCC(CC)[C@H]1C(=O)N(C)[C@H](C(=O)N(C)C)CC(=O)N(C)[C@H]2CCC/C=C/c3ccc(cc3)C[C@@H](C(=O)N(C)CC(=O)N[C@@H](CCc3cc(F)c(C(F)(F)F)c(F)c3)C(=O)N3CCC[C@H]3C(=O)NC3(CC(C)(C)C3)C(=O)N1C)N1CC/C=C\C[C@@H](C1=O)N(C)C(=O)CN(C)C(=O)[C@H]([C@@H](C)CC)NC2=O [PP2600] | A (a compound having 10 or more and less than 20 is denoted as A) | A (a compound having 10 or more and less than 20 is denoted as A) | 0.17
CC[C@H](C)[C@@H]1NC(=O)[C@@H]2CCC/C=C/c3ccc(cc3)C[C@@H](C(=O)N(C)CC(=O)N[C@@H](CCc3ccc(Cl)c(Cl)c3)C(=O)N3CCC[C@H]3C(=O)NC3(CC(C)(C)C3)C(=O)N(C)[C@@H](C3CCCC3)C(=O)N(C)[C@H](C(=O)N(C)CC)CC(=O)N2C)N2CC/C=C\C[C@@H](C2=O)N(C)C(=O)CN(C)C1=O [PP2601] | A (a compound having 10 or more and less than 20 is denoted as A) | A (a compound having 10 or more and less than 20 is denoted as A) | 0.2
CC[C@H](C)[C@@H]1NC(=O)[C@@H]2CCC/C=C/c3ccc(cc3)C[C@@H](C(=O)N(C)CC(=O)N[C@@H](CCc3ccc(Cl)c(Cl)c3)C(=O)N3CCC[C@H]3C(=O)NC3(CC(C)(C)C3)C(=O)N(C)[C@@H](C3CCCC3)C(=O)N(C)[C@H](C(=O)N3CCCC3)CC(=O)N2C)N2CC/C=C\C[C@@H](C2=O)N(C)C(=O)CN(C)C1=O [PP2602] | A (a compound having 10 or more and less than 20 is denoted as A) | A (a compound having 10 or more and less than 20 is denoted as A) | 0.25
CCC(CC)[C@H]1C(=O)N(C)[C@H](C(=O)N(C)C)CC(=O)N(C)[C@H]2CCC/C=C/c3ccc(cc3)C[C@@H](C(=O)N(C)CC(=O)N[C@@H](CCc3ccc(Cl)c(Cl)c3)C(=O)N3CCC[C@H]3C(=O)NC3(CC(C)(C)C3)C(=O)N1C)N1CC/C=C\C[C@@H](C1=O)N(C)C(=O)CN(C)C(=O)[C@H]([C@@H](C)CC)NC2=O [PP2603] | A (a compound having 10 or more and less than 20 is denoted as A) | AA (a compound having 20 or more is denoted as AA) | 0.44
CCC(CC)[C@H]1C(=O)N(C)[C@H](C(=O)N2CCCC2)CC(=O)N(C)[C@H]2CCC/C=C/c3ccc(cc3)C[C@@H](C(=O)N(C)CC(=O)N[C@@H](CCc3ccc(Cl)c(Cl)c3)C(=O)N3CCC[C@H]3C(=O)NC3(CC(C)(C)C3)C(=O)N1C)N1CC/C=C\C[C@@H](C1=O)N(C)C(=O)CN(C)C(=O)[C@H]([C@@H](C)CC)NC2=O [PP2604] | A (a compound having 10 or more and less than 20 is denoted as A) | AA (a compound having 20 or more is denoted as AA) | 0.4
CCO[C@@H]1C[C@H]2C(=O)NC3(CCC3)C(=O)N(C)[C@@H](C3CCCC3)C(=O)N(C)[C@H](C(=O)N(C)C)CC(=O)N(C)[C@@H](CC3CCCC3)C(=O)N[C@@H]([C@@H](C)CC)C(=O)N(C)CC(=O)N(C)[C@H]3C/C=C\CCN(C3=O)[C@@H](Cc3ccc(C)cc3)C(=O)N(C)CC(=O)N[C@@H](CCc3cc(F)c(CC)c(OC)c3)C(=O)N2C1 [PP2674] | A (a compound having 10 or more and less than 20 is denoted as A) | A (a compound having 10 or more and less than 20 is denoted as A) | 0.5
